Columns and labels:
[1] = tested on: Human gammaherpesvirus 4; experiment: Inhibition of TPA-induced Epstein-Barr virus early antigen activation in Raji cells after 48 hrs; assay type: functional, organism-based; details: human gammaherpesvirus 4, Raji
[2] = tested on: Human gammaherpesvirus 4; experiment: Inhibition of TPA-induced Epstein-Barr virus early antigen activation assessed as EBV-EA induction in Raji cells at 32 nM after 48 hrs relative to TPA; values are per cent of control; details: human gammaherpesvirus 4, Raji
[3] = tested on: Human gammaherpesvirus 4; experiment: Inhibition of TPA-induced Epstein-Barr virus early antigen activation assessed as EBV-EA induction in Raji cells at 0.32 nM after 48 hrs relative to TPA; values are per cent of control; details: human gammaherpesvirus 4, Raji
[4] = tested on: Raji; experiment: Cell viability of Raji cells at 320 nM; assay type: functional, Homo sapiens
[5] = tested on: Human gammaherpesvirus 4; experiment: Inhibition of TPA-induced Epstein-Barr virus early antigen activation assessed as EBV-EA induction in Raji cells at 320 nM after 48 hrs relative to TPA; values are per cent of control; details: human gammaherpesvirus 4, Raji
[6] = Scavenging activity against NO generation in human Chang liver cells assessed as inhibition of NOR1-activation at 350 nM relative to NOR1; assay type: functional
[7] = tested on: Human gammaherpesvirus 4; experiment: Inhibition of TPA-induced Epstein-Barr virus early antigen activation assessed as EBV-EA induction in Raji cells at 3.2 nM after 48 hrs relative to TPA; values are per cent of control; details: human gammaherpesvirus 4, Raji

Row | SMILES | IC50 [1] | level, % of control at 0.032 µM [2] | level, % of control at 0.00032 µM [3] | Activity [4] | level, % of control at 0.32 µM [5] | Activity [6] | level, % of control at 0.0032 µM [7]
1 | C=C(C)[C@@H](C)CC[C@@H](C)[C@H]1CC[C@@]2(C)[C@@H]3CC[C@H]4C(C)(C)[C@@H](O)CC[C@@]45C[C@@]35CC[C@]12C [CYCLOLAUDENOL (24S)] | 8.9 nM | 30.6% | 93.6% | 70% | 0% | 1.8 | 70%
2 | CC(=O)O[C@H]1CC[C@]23C[C@]24CC[C@]2(C)[C@@H]([C@H](C)CCC=C(C)C)CC[C@@]2(C)[C@@H]4CC[C@H]3C1(C)C [CYCLOARTENOL ACETATE] | 10.1 nM | 32.3% | 96.9% | 70% | 0% | 1.8 | 73.1%
3 | CC(C)CCC[C@@H](C)[C@H]1CC[C@@]2(C)[C@@H]3CC[C@H]4C(C)(C)[C@@H](O)CC[C@@]45C[C@@]35CC[C@]12C [CYCLOARTANOL] | 9.4 nM | 30.2% | 95% | 70% | 0% | 1.8 | 70.2%
4 | CC(C)=CCC[C@@H](C)[C@H]1CC[C@@]2(C)[C@@H]3CC[C@H]4C(C)(C)C(=O)CC[C@@]45C[C@@]35CC[C@]12C [CYCLOARTENONE] | 8.8 nM | 24.6% | 92.6% | 70% | 2.3% | 1.5 | 71.3%
5 | CC(=O)[C@H]1CC[C@@]2(C)[C@@H]3CC[C@H]4C(C)(C)C(=O)CC[C@@]45C[C@@]35CC[C@]12C | 8.9 nM | 22.1% | 94.6% | 70% | 0% | 1.5 | 70.3%
6 | C=C(C)[C@@H](C)CC[C@@H](C)[C@H]1CC[C@@]2(C)[C@@H]3CC[C@H]4[C@@H](C)C(=O)CC[C@@]45C[C@@]35CC[C@]12C | 9.9 nM | 32.4% | 94.6% | 70% | 0% | 1.8 | 72.7%
7 | CC(C)CCC[C@@H](C)[C@H]1CC[C@@]2(C)[C@@H]3CC[C@H]4[C@H](C)[C@@H](O)CC[C@@]45C[C@@]35CC[C@]12C | 9.9 nM | 31.5% | 95.6% | 70% | 0% | 1.5 | 72.6%
8 | COc1cc(/C=C/C(=O)O[C@H]2CC[C@]34C[C@]35CC[C@]3(C)[C@@H]([C@H](C)CCC=C(C)C)CC[C@@]3(C)[C@@H]5CC[C@H]4C2(C)C)ccc1O [GAMMA ORYZANOL] | 15.9 nM | 56% | 100% | 70% | 19.7% | 1.5 | 84.7%
9 | COC(CC[C@@H](C)[C@H]1CC[C@@]2(C)[C@@H]3CC[C@H]4C(C)(C)C(=O)CC[C@@]45C[C@@]35CC[C@]12C)C(C)(C)O (some centres not stated) | 8.8 nM | 21% | 94.6% | 70% | 0% | 1.9 | 67.1%
10 | C=C(CC[C@@H](C)[C@H]1CC[C@@]2(C)[C@@H]3CC[C@H]4[C@H](C)[C@@H](O)CC[C@@]45C[C@@]35CC[C@]12C)C(C)C [CYCLOEUCALENOL] | 8.9 nM | 26.5% | 94.8% | 70% | 0% | 1.7 | 68.1%
11 | CC(C)=C(C)CC[C@@H](C)[C@H]1CC[C@@]2(C)[C@@H]3CC[C@H]4C(C)(C)[C@@H](O)CC[C@@]45C[C@@]35CC[C@]12C [CYCLOBRANOL] | 9.4 nM | 30.5% | 94.5% | 70% | 0% | 1.9 | 71.3%

From ChEMBL document CHEMBL1143693, “Cancer chemopreventive effects of cycloartane-type and related triterpenoids in in vitro and in vivo models” (J Nat Prod, 2007)
